From patent publication US10568827B2, “External dermal agent for reducing yellowish dullness” (Hayashibara Co., Ltd., priority 2015, dated 2020) come the findings set out here.

This test concerns the target carbonyl BSA (Bos taurus, UniProt P02769). In words: Carbonyl protein reduction test with carbonyl BSA model (OxyBlot dot blot). In kind it is biochemical, bovine. To be noted: for action of reducing carbonyl protein (carbonyl BSA): conclusion in words. As for the experimental part: A carbonyl protein, obtained by carbonylating bovine serum albumin (termed “BSA”, hereinafter), was prepared as a carbonyl protein model (termed “carbonyl BSA”, hereinafter) and used in this experiment.
In phosphate buffered saline (termed “PBS (-)”, hereinafter) containing 100 μM of sodium hypochlorite as a carbonyl initiator was dissolved BSA to give a final concentration of 40 mg/mL, followed by keeping the resulting solution at 37° C. overnight to form carbonyl BSA, as a carbonyl protein model, used as a substance to cause skin yellowness, and removing the remaining sodium hypochlorite with “AMICON ULTRA 10K”, a product name of ultrafiltration membrane, commercialized by Merck Millipore Corporation, Tokyo, Japan, to obtain a carbonyl BSA. In this experiment, the carbonyl BSA was used as a carbonyl protein model.
Based on Western blot analysis, the concentration of carbonyl BSA was assayed with dot blot method using a kit, “OxyBlot™ Protein Oxidation Detection Kit”, a product name of a kit for analyzing the oxidation level of protein, commercialized by Merck Millipore Corporation, Tokyo, Japan. The resulting measured values (emission intensity) were analyzed with “Image J”, an image processing software explored by National Institutes of Health (NIH), Maryland, USA. While, a PBS (-) solution (called “control”, hereinafter) containing carbonyl BSA, obtained similarly as in the above except for not using any of the test samples, was similarly measured as in the above, followed by determining the ratios of the measured values for those with the test samples against that of control. The results are in Table 1 and FIG. 1. […] The numerals in the table respectively show the ratios of carbonyl BSA when the test samples were respectively used alone against the measured value of carbonyl BSA, regarded as 1, for Control with no addition of any of the test samples.
The results are respectively in Tables 2 and 3 and FIGS. 2 and 3. The numerals with no symbol “%” in each table show ratios of carbonyl BSA obtained in such a manner of calculating the amount of carbonyl BSA for the system with either or both of the test samples that were respectively used alone or used in combination while regarding as one the amount of carbonyl BSA in each control system with no addition of any of the compositions containing glycosyl hesperetin or glycosyl naringenin.
Except for using any one of mannose, N-acetylglucosamine, “MALTOSE HHH” as a product name of maltose, raffinose, maltotetraose, and “TORNARE®” as a product name of glycosyl trehalose used as a cosmetic base material, which are shown in Table 4 below, in place of the composition containing glycosyl naringenin and the ascorbic acid 2-glucoside used in the above (4), and preparing it into a solution containing 0.1 w/v % of any of the above saccharide for use as a test solution for carbonyl protein reduction test, it was examined the carbonyl protein reduction action of the combination use the composition containing glycosyl hesperetin and any one of the above-identified saccharides similarly as in the above (4).
This experiment was conducted with organic acids and amino acids, which were focused on as compounds to be used with the composition containing glycosyl hesperetin.

Setting [1] is: test—2 (Table 5), single use 0.1 w/v %, Control = 1.
Where [2] appears, read: test—2, combination use of composition containing glycosyl hesperetin (0.1 w/v %) and the labelled saccharide (0.1 w/v %).
[3] abbreviates: test—3, composition containing glycosyl hesperetin (0.1 w/v %) in combination with the labelled organic acid or amino acid (0.1 w/v % as headed).
Where [4] appears, read: test—3, sole use of organic acid or amino acid (0.1 w/v % as headed), Control = 1.
Where [5] appears, read: sole use test, test sample 0.1 w/v %, carbonyl BSA:test sample 1:1 by mass, 37° C., 16 hours, Control (no addition) = 1.

carbonyl BSA, sequence (P02769 25-607): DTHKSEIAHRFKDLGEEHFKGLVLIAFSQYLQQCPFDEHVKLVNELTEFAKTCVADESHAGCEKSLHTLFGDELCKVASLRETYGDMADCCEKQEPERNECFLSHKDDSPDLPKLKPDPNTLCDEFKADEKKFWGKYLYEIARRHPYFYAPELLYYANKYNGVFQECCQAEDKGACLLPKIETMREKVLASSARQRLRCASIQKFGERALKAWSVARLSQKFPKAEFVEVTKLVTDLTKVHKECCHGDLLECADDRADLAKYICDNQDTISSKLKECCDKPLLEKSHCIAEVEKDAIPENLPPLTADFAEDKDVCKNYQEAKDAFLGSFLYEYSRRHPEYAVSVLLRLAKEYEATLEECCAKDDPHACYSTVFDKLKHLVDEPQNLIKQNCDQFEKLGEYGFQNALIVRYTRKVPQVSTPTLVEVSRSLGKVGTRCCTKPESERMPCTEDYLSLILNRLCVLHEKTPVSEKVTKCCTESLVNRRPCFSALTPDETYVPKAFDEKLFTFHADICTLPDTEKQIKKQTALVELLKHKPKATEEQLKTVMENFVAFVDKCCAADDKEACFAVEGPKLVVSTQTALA

On to `OC[C@H]1O[C@H](OC[C@H]2O[C@H](O[C@]3(CO)O[C@H](CO)[C@@H](O)[C@@H]3O)[C@H](O)[C@@H](O)[C@@H]2O)[C@H](O)[C@@H](O)[C@H]1O` [Raffinose, raffinose], for which the “Ratio of carbonyl BSA” value turned out to be 0.23 under setting [1] and 0.54 under setting [2].

Take `O=C(O)c1ccccc1` [J, benzoic acid]: the “Ratio of carbonyl BSA” value runs as follows: under setting [3], 0.44; under setting [4], 0.95.

Turning to `CC(=O)N[C@H]1C(O)O[C@H](CO)[C@@H](O)[C@@H]1O` (stereo partly drawn) [N-Acetyl glucosamine], the “Ratio of carbonyl BSA” value is, setting by setting: under setting [1], 0.48; under setting [2], 0.79.

Take `COc1cc(/C=C/C(=O)O)ccc1O` [E, ferulic acid]: the “Ratio of carbonyl BSA” value by setting is: under setting [3], 0.35; under setting [4], 0.82.

Regarding `CC(O)C(=O)O` (stereo not drawn) [A, lactic acid], the “Ratio of carbonyl BSA” value runs as follows: under setting [3], 0.35; under setting [4], 0.89.

Take `NC(=O)c1cccnc1` [Niacinamide, niacinamide, reference compound]: the “action of reducing carbonyl protein (carbonyl BSA)” value is listed as “no action of reducing carbonyl protein”. Further, the “Ratio of carbonyl BSA” value under setting [5] was found to be 1.05.

For `O=C(O)C(O)C(O)C(=O)O` (stereo not drawn) [B, tartaric acid], the “Ratio of carbonyl BSA” value under setting [3] was 0.51 and the “Ratio of carbonyl BSA” value under setting [4] is listed as 0.95.

In the case of `N[C@@H](CCC(=O)[O-])C(=O)[O-].[Na+].[Na+]` [L, sodium glutamate], the “Ratio of carbonyl BSA” value is given as 0.28 under setting [3] and 0.77 under setting [4].

As to `O=C[C@H](O)[C@@H](O)[C@H](O)[C@H](O)C(=O)O` [F, glucuronic acid], the “Ratio of carbonyl BSA” value reads like this: under setting [3], 0.16; under setting [4], 1.01.

As for `OC[C@H]1O[C@H](O[C@H]2[C@H](O)[C@@H](O)C(O)O[C@@H]2CO)[C@H](O)[C@@H](O)[C@@H]1O` (mixture of isomers) [Maltose, maltose], the “Ratio of carbonyl BSA” value is recorded as 0.18 under setting [1] and 0.11 under setting [2].

Turning to `NCC(=O)O` [K, glycine], the “Ratio of carbonyl BSA” value stood at 0.32 under setting [3] and 0.71 under setting [4].

With `N[C@@H](CCC(=O)N[C@@H](CS)C(=O)NCC(=O)O)C(=O)O` [Glutathione (reduced form), reduced glutathione, reference compound], the “action of reducing carbonyl protein (carbonyl BSA)” value was “no action of reducing carbonyl protein”. Moreover, the “Ratio of carbonyl BSA” value under setting [5] is 1.19.

Regarding `OC[C@H]1O[C@H](O[C@H]2[C@H](O)[C@@H](O)[C@@H](O[C@H]3[C@H](O)[C@@H](O)[C@@H](O[C@H]4[C@H](O)[C@@H](O)C(O)O[C@@H]4CO)O[C@@H]3CO)O[C@@H]2CO)[C@H](O)[C@@H](O)[C@@H]1O` (stereo partly drawn) [Maltotetraose, maltotetraose], the “Ratio of carbonyl BSA” value was 0.71 under setting [1] and 0.13 under setting [2].

As for `C/C=C/C=C/C(=O)O` [I, sorbic acid], the “Ratio of carbonyl BSA” value by setting is: under setting [3], 0.26; under setting [4], 1.04.

For the compound `CC(=O)O` [H, acetic acid], the “Ratio of carbonyl BSA” value runs as follows: under setting [3], 0.25; under setting [4], 1.08.

Regarding `O=C(O)CC(O)(CC(=O)O)C(=O)O` [C, citric acid], the “Ratio of carbonyl BSA” value reads like this: under setting [3], 0.52; under setting [4], 0.96.

For `O=C1O[C@H]([C@@H](O)CO)C(O)=C1O[C@H]1O[C@H](CO)[C@@H](O)[C@H](O)[C@H]1O` [L-Ascorbic acid 2-glucoside, L-ascorbic acid 2-glucoside, reference compound], the “Ratio of carbonyl BSA” value is recorded as 0.73 under setting [5] and 0.70 (test—1 (Tables 2, 3), single use, with no addition of the other ingredient, test sample 0.1 w/v %, Control = 1).

With `O=C[C@H](O)[C@H]1OC(=O)[C@@H](O)[C@H]1O` [G, glucuronolactone], the “Ratio of carbonyl BSA” value is on record as 0.49 under setting [3] and 1.07 under setting [4].
